Source: patent US7148250B2, “Indoles as NAALADase inhibitors” (Guilford Pharmaceuticals Inc., priority 2001, dated 2006)

Experiments:
NAALADase = molecular target: T1, NAALADase (Homo sapiens, UniProt Q04609); assay: In vitro inhibition of NAALADase activity; format: biochemical; details: average IC50 values
T1 construct: from tissue; host or cells: unspecified "tissue"
Description: Various compounds of the invention were tested for in vitro inhibition of NAALADase activity.
The following were combined in assay tubes: 100 μL of 10 mM CoCl2, 250 μof 200 mM Tris chloride, 100 μL tissue, 100 μL of 10 mM NAALADase inhibitor in Bakers H2O, and Bakers H2O to make a total volume of 950 μL. Each assay tube was then incubated for 10 minutes in a 37 EC water bath. […] The assay was stopped by adding 1.0 ml of 0.1 M sodium phosphate.
Glutamate released by the action of the NAALADase enzyme was separated from the assay solution using an anion exchange resin. The resin was equilibrated to 25 EC, 2.0 ml of the resin was added to a Pasteur pipette pre-loaded with a single glass bead, and each column was washed twice with distilled H2O. A column was placed over a scintillation vial and 200 μL of an assay sample was loaded onto the column. After draining, glutamate was eluted using two 1.0 ml washes of 1 M formic acid. After addition of 10 ml of scintillation cocktail, each sample was counted for 2 minutes on a scintillation counter.

STZ-diabetic rats [1] = assay: Neuropathic pain in STZ model (thermal withdrawal latency); format: in vivo, rat; details: 10 mg/kg i.p. daily, treatment from 45 days post STZ
Description: Male Sprague-Dawley rats (200–225 g) were rendered diabetic by intravenous administration of streptozotocin (“STZ”, 70 mg/kg in phosphate buffered saline). Diabetic animals were divided into five groups: one group receiving Compound A (10 mg/kg or 1 mg/kg), Compound D (10 mg/kg or 1 mg/kg) or vehicle. Another group of animals (non-STZ treated) served as non-diabetic controls. Drug/vehicle treatment was started in diabetic animals 45 days post-STZ administration. STZ-induced diabetic rats were tested for sensitivity to a heat source as soon as blood glucose levels rose to 320 mg/dl or above (30 days post STZ). The rats were then acclimated to a Hargreaves apparatus and thermal nociception was monitored using an infrared heat source directed into the dorsal surface of the hindpaw, and the time taken for the animal to remove its paw noted to the nearest 0.1 seconds (see Hargreaves et al., supra, for detailed experimental method). The intensity of the beam source was adjusted such that the mean latency for control animals (non-STZ treated) was approximately 10 seconds. Each animal was tested 8 times and the mean difference score (between mean non-diabetic control latency and mean diabetic latency) are graphically presented in FIGS. 7A and 7B.

BB/W diabetic rats = assay: Progression of neuropathic pain and nerve conduction deficits in BB/W model; format: in vivo, rat
Description: Male BB/W rats (BRI, Mass) spontaneously develop a cell mediated autoimmune destruction of pancreatic B cells, resulting in onset of insulin-dependent (Type I) diabetes (Guberski 1994). […] This renders them valuable for experimental trials of new compounds for future treatments of this major disorder. In the present study, Compound D and Compound A were examined for their ability to alter the progression of diabetic neuropathy. The rats received daily injection of Compound D or Compound A (10 mg/kg i.p.) or vehicle, starting at the onset of diabetes (hyperglycemia) and up to 6 months thereafter. Another group of non-diabetic rats also receiving vehicle were tested. All animals were continuously monitored for body weight, urine volume, blood sugar and glycated haemoglobin. In the first month of the study, all animals were tested for thermal nociception in a Hargreaves apparatus, weekly. After the first month this was done biweekly and then monthly. The testing consists of directing an infrared heat source onto the dorsal surface of the rat hindpaw and noting the time taken for the animal to remove its paw (see Hargreaves et al., supra, for a description of the experimental method). Each animal was tested 8 times and the mean withdrawal latency noted.
Nerve conduction velocity was also measured every two weeks through the first eight weeks of treatment and every month thereafter through to the six months of treatment (see De Koning et al., Peptides, Vol. 8, No. 3, pp. 415–22 (1987) for a description of the experimental method). […] This was apparent starting at 8 weeks of treatment and persisted to a similar degree through to the six month termination point of the study.

STZ-diabetic rats [2] = assay: Diabetic neuropathy in STZ model (nerve conduction velocity); format: in vivo, rat
Description: Motor and sensory nerve conduction velocity was also measured in STZ-diabetic animals after 4, 8 and 12 weeks of treatment (see De Koning et al., supra, for a description of the experimental method). Briefly, stimulating needle electrodes were inserted close to the sciatic and tibial nerves with recording electrodes being placed subcutaneously over the distal foot muscles, in anesthetized rats.

STZ-diabetic rats [3] = assay: Reversal of diabetic neuropathy in STZ model, delayed dosing; format: in vivo, rat; details: for neuropathic hyperalgesia / motor nerve conduction velocity: daily p.o.; for neuropathic hyperalgesia: treatment from 5 weeks post STZ, within two weeks of treatment; for motor nerve conduction velocity: within 8 weeks of dosing, persisted through 12 weeks
Description: Rats (200–225 grams) were injected with STZ (70 mg/kg) into the tail vein. Diabetes (>350 mg/dl) was confirmed in all rats, 4 weeks after STZ administration. Rats were left untreated until 35–49 days after STZ. Compound D (1, 3, or 10 mg/kg), Compound E (10 mg/kg), or vehicle were dosed daily p.o. following confirmation of hyperalgesia and/or nerve conduction velocity deficits. In separate experiments, onset of treatment was delayed until 60 to 90 days after STZ administration. Nerve conduction velocity or withdrawal response to thermal stimulation of hind paws was measured at intervals, usually bi-weekly for thermal response and monthly for nerve conduction velocity.
Sensory and motor nerve conduction velocities were evaluated using the method of De Koning and Gispen (Peptides 8: 415–422, 1987). Electrophysiological evaluation was carried out within one hour of dosing. Animals were anesthetized with isoflurane and stimulating needle electrodes were inserted close to the sciatic nerve at the sciatic notch and the tibial nerve near the ankle. Recording electrodes were placed over the foot muscles. Stimuli were applied and responses recorded. Motor and sensory nerve conduction velocities were calculated by measuring the distance between the sciatic notch and ankle sites, and the latency between the M-wave and the H-reflex.
Animals were acclimated to the apparatus for at least 5 min. An infra-red source was placed under below the plantar surface of the rat hind-paw. The intensity of the source was adjusted so that latency for normal rats was about 10 secs. Animals were tested for thermal response latency according to the method of Hargreaves et al (Pain 77–88, 1988). Each animal was tested 8 times (4 each hind limb) and the latency of response recorded automatically to nearest 0.1 sec. An average of the last 4 measurements for each paw was calculated (8 total measurements) and noted for each rat.

T1 sequence (Q04609 whole entry): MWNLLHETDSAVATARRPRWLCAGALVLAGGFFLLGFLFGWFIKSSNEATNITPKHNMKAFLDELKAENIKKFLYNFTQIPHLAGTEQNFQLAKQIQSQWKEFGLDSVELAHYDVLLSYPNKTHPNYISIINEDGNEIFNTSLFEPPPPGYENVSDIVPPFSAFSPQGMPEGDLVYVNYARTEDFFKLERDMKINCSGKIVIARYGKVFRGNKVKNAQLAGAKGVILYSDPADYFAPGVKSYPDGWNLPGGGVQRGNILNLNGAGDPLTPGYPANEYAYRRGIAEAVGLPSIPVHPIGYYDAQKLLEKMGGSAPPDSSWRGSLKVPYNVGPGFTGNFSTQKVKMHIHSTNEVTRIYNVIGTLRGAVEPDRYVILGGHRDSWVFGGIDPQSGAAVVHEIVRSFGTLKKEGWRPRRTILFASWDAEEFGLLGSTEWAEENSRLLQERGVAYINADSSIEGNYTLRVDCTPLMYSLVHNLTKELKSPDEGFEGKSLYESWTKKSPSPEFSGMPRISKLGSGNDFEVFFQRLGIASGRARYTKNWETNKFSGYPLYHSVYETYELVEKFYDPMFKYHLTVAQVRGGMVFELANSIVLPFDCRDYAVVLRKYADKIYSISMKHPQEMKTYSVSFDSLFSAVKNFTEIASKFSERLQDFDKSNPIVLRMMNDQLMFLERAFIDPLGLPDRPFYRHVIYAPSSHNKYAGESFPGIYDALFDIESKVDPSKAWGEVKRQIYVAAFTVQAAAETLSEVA

O=C(O)c1[nH]c2ccccc2c1CCS [Compound 1, 3-(2-mercaptoethyl)-1H-indole-2-carboxylic acid]
IC50 (NAALADase): 1240 nM

O=C(O)c1c(CCS)c2ccccc2n1-c1ccccc1 [Compound 11, 3-(2-mercaptoethyl)-1-phenyl-1H-indole-2-carboxylic acid]
IC50 (NAALADase): 4740 nM

O=C(O)c1cc(Cn2c(C(=O)O)c(CCS)c3ccccc32)ccc1Br [Compound 9, 1-[(4-bromo-3-carboxyphenyl)methyl]-3-(2-mercaptoethyl)-1H-indole-2-carboxylic acid]
IC50 (NAALADase): 104 nM

O=C(O)c1cccc(Cn2c(C(=O)O)c(CCS)c3ccccc32)c1 [Compound 3, 1-[(3-carboxyphenyl)methyl]-3-(2-mercaptoethyl)-1H-indole-2-carboxylic acid]
IC50 (NAALADase): 55.3 nM

O=C(O)CCC(CCS)C(=O)O (stereo not shown) [Compound D, 2-(2-sulfanylethyl)-pentanedioic acid]
hyperalgesic response (withdrawal latency difference score) (STZ-diabetic rats [1]): completely reversed | nerve conduction velocity deficits versus diabetic vehicle controls (BB/W diabetic rats; 10 mg/kg daily, from 8 weeks to six months): significantly less severe nerve conduction deficits | withdrawal latency versus diabetic vehicle-treated rats (BB/W diabetic rats; 10 mg/kg i.p. daily, from 4 weeks through six months of treatment): longer withdrawal latencies | motor and sensory nerve conduction velocities (STZ-diabetic rats [2]; 1 mg/kg): increased | motor and sensory nerve conduction velocities (STZ-diabetic rats [2]; 10 mg/kg daily, 4, 8 and 12 weeks): increased | sensory and motor nerve conduction velocity deficits (STZ-diabetic rats [3]; STZ rats untreated until 60 days after STZ, external CRO): Partial reversal | neuropathic pain abnormalities (STZ-diabetic rats [3]; STZ rats, 1 and 3 mg/kg, treatment from 7 weeks post STZ): Significant reduction | motor nerve conduction (STZ-diabetic rats [3]; STZ rats, 1 and 3 mg/kg, treatment from 7 weeks post STZ, 8 weeks after dosing): remained unimproved | sensory nerve conduction (STZ-diabetic rats [3]; STZ rats, 1 and 3 mg/kg, treatment from 7 weeks post STZ, within 4 weeks of treatment): significantly improved towards normal | neuropathic hyperalgesia (STZ-diabetic rats [3]; STZ rats): reversed towards normal | motor nerve conduction velocity (STZ-diabetic rats [3]; STZ rats): reversed the motor nerve conduction velocity towards normal

CC(C)(C)c1cc(Cn2c(C(=O)O)c(CCS)c3ccccc32)cc(C(=O)O)c1 [Compound 8, 1-[[3-carboxy-5-(1,1-dimethylethyl)-phenyl]methyl]-3-(2-mercaptoethyl)-1H-indole-2-carboxylic acid]
IC50 (NAALADase): 35 nM

O=C(O)c1cccc(CC(CCCS)C(=O)O)c1 (stereo not drawn) [Compound E, 3-carboxy-alpha-(3-mercaptopropyl)benzenepropanoic acid]
neuropathic hyperalgesia (STZ-diabetic rats [3]; STZ rats): reversed towards normal | motor nerve conduction velocity (STZ-diabetic rats [3]; STZ rats): reversed the motor nerve conduction velocity towards normal

O=C(O)c1ccccc1Cn1c(C(=O)O)c(CCS)c2ccccc21 [Compound 7, 1-[(2-carboxyphenyl)methyl]-3-(2-mercaptoethyl)-1H-indole-2-carboxylic acid]
IC50 (NAALADase): 18.5 nM

O=C(O)c1c(CCS)c2ccccc2n1CCc1ccccc1 [Compound 12, 3-(2-mercaptoethyl)-1-(2-phenylethyl)-1H-indole-2-carboxylic acid]
IC50 (NAALADase): 44000 nM

O=C(O)c1ccc(Cn2c(C(=O)O)c(CCS)c3ccccc32)cc1 [Compound 5, 1-[(4-carboxyphenyl)methyl]-3-(2-mercaptoethyl)-1H-indole-2-carboxylic acid]
IC50 (NAALADase): 66.5 nM

O=C(O)c1ccc(Br)c(Cn2c(C(=O)O)c(CCS)c3ccccc32)c1 [Compound 4, 1-[(2-bromo-5-carboxyphenyl)methyl]-3-(2-mercaptoethyl)-1H-indole-2-carboxylic acid]
IC50 (NAALADase): 54.3 nM

O=C(O)c1[nH]c2c(C(=O)O)cccc2c1CCS [Compound 2, 3-(2-mercaptoethyl)-1H-indole-2,7-dicarboxylic acid]
IC50 (NAALADase): 760 nM

COc1ccc(C(=O)O)c(Cn2c(C(=O)O)c(CCS)c3ccccc32)c1 [Compound 10, 1-[(2-carboxy-5-methoxyphenyl)methyl]-3-(2-mercaptoethyl)-1H-indole-2-carboxylic acid]
IC50 (NAALADase): 12 nM

O=C(O)c1c(CCS)c2ccccc2n1Cc1ccccc1 [Compound 6, 3-(2-mercaptoethyl)-1-(phenylmethyl)-1H-indole-2-carboxylic acid]
IC50 (NAALADase): 12100 nM
